Laboratory results taken from patent US10975056B2 (GlaxoSmithKline Intellectual Property Development Limited, priority 2016, dated 2021).
Counter-ions that a name gives are not always drawn. Like-named read-outs stand apart in the source and are kept apart here.

Key:
human full length DNMT1 = human full length DNMT1 (Homo sapiens (Human), UniProt P26358); assay: DNMT1 breaklight assay; assay type: biochemical; settings: repeated experimental runs, read-out: average IC50 against DNMT1
Description: DNMT1 breaklight in vitro assays were conducted in a total volume of 50 μl in a standard 384 well format, using black non-binding surface microplates (Corning 3575). Five μl of human full length DNMT1 (produced internally), used at a final concentration of 40 nM, was added to 5 μl of substrate mixture containing final concentrations of 125 nM hemi methylated oligonucleotide (synthesized at ATD Bio; 5′-FAM-[…]5[…]5G5TAGAT-3′ where 5=methyl deoxycitidine) and 2 μM ultrapure SAM (Cisbio #62SAHZLD). Negative control wells used 5 μl of DNMT1 and 5 μl of oligonucleotide but 0 μM SAM. All reagents were made up in 1× assay buffer (20 mM Tris pH 6.8, 25 mM NaCl, 0.5 mM MgCl2, 0.01% Triton X100 and 1 mM DTT). The reaction was incubated at 26° C. for 45 min and then stopped with the addition of 40 μl detection reagent. Detection reagent, made up in 1× Gla assay buffer (20 mM Tris pH 8.0, 80 mM NaCl, 0.75 mM MgCl2, 0.01% Triton X100 and 1 mM DTT) has a final concentration of 100 μM SAH (Sigma #A9384) and 0.0008 units/μl Gla1 restriction endonuclease (Sibenzyme #E494). Following addition of the detection reagent the plate was incubated in the dark at room temperature for 5 hr. Fluorescence intensity was then measured on the PHERAstar FS (BMG Labtech) at Ex 485 nm and Em 520 nm, with a gain of 400 and an integration time of 100 ms.

DNMT3B = DNMT3B (Homo sapiens (Human), UniProt Q9UBC3); assay: DNMT3B breaklight assay; assay type: biochemical
human DNMT3a/3l = human DNMT3a/3l (Homo sapiens (Human), UniProt Q9Y6K1); assay: DNMT3a/3l breaklight assay; assay type: biochemical
Sequence of human DNMT3a/3l (Q9Y6K1 whole entry, looked up): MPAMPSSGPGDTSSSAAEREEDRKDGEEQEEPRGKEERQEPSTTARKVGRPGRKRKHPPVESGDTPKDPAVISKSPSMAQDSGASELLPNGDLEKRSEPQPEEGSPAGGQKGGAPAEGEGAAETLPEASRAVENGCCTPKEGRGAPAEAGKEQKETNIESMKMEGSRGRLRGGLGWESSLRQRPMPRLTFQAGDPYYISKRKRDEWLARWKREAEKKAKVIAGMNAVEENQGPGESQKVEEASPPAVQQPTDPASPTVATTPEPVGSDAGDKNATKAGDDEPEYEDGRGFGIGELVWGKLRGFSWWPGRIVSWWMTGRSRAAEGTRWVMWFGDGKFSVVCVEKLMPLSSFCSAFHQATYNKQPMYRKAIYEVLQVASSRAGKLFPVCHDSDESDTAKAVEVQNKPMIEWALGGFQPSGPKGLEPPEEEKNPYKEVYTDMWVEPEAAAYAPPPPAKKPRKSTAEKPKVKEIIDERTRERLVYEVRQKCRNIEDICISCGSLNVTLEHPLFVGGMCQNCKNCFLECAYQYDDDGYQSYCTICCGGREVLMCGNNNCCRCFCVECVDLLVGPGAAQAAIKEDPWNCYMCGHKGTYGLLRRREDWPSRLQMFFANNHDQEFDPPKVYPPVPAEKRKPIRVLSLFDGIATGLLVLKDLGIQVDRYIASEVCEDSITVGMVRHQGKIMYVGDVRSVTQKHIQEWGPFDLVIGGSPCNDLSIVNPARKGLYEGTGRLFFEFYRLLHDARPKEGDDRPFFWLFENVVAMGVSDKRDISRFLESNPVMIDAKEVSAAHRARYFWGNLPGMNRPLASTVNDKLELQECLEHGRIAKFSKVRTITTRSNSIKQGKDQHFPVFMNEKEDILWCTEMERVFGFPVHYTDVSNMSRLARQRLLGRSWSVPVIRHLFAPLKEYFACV
Sequence of human DNMT3a/3l (Q9UJW3 whole entry partner, looked up): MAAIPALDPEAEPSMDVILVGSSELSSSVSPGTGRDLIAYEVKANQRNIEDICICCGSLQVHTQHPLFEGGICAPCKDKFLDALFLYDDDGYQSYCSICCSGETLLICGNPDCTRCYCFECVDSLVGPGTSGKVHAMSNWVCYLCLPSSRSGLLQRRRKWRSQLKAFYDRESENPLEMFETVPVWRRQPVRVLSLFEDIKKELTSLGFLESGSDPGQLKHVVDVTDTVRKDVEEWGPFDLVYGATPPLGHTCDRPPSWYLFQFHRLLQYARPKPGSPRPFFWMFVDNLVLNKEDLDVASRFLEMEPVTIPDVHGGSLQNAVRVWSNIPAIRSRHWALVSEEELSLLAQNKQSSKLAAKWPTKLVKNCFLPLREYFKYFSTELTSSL

MV-4-11 AML cells = assay: MV-4-11 cell proliferation assay (CellTiter-Glo, 6 days); assay type: cell-based; settings: Homo sapiens, MV4-11, 144 h; 6 days treatment; binning as pXC50; read-out: MV4-11 Anti-proliferative activity (EC50 category)
Description: MV-4-11 Anti-Proliferative Activity (pEC50 Category)
Cell proliferation assay. Optimal cell seeding density was determined empirically for MV-4-11 AML cells by examining the growth of a wide range of seeding densities in a 384-well format to identify conditions that permitted maximal and continued proliferation for 6 days. MV-4-11 cells were plated in duplicate plates 24 hours before treatment with a 20-point two-fold dilution series of compound or 0.15% DMSO. Plates were incubated for 6 days at 37° C. in 5% CO2. Cells were then lysed with CellTiter-Glo (CTG) (Promega) and chemiluminescent signal was detected with an appropriate microplate reader. In addition, an untreated plate of cells was harvested at the time of compound addition (T0) to quantify the initial cell density. CTG values obtained after 6 days of treatment were expressed as a percent of the T0 value and plotted against compound concentration. Data were fit with a four parameter equation to generate a concentration response curve from which growth IC50 values were calculated.

[1] = system: human hemoglobin transgenic mice (sickle cell disease model); assay: Sickle cell mouse model, fetal hemoglobin induction in vivo; settings: for increase in % F RBCs / increase in % F reticulocytes: 2 week dose period; for increase in % HbF protein: two weeks
Excerpt: A mouse model of sickle cell disease was utilized to measure the in vivo efficacy of Compound A previously shown to have potent in vitro activity in human primary erythroid progenitor cells derived from normal bone marrow or sickle cell patient peripheral blood mononuclear cells.
The in vivo activity of Compound A was investigated in the sickle cell mouse model in accordance with US/UK standards of animal care.
Male and female human hemoglobin transgenic mice [B6; 129-Hbatm1(HBA)Tow/Hbbtm2(HBG1,HBB*)Tow/J Mice (Jackson Laboratories, Me.)] were approximately 6-8 weeks old and weighed approximately 15-25 grams at the initiation of the studies. To the extent possible, groups were gender balanced and comprised of 6 mice.
Mice were administered vehicle (10% DMA/90% PEG400), 10 or 50 mg/kg Compound A twice daily (BID) by oral route five days per week, over a two week period.
At the end of the dosing period, mice were euthanized by CO2 asphyxiation and blood from the vena cava was collected into EDTA tubes for fetal hemoglobin analysis. % HbF protein was determined by high performance liquid chromatography and % F cells (HbF expressing erythrocytes) were determined by flow cytometry. The mouse monoclonal anti-human HbF antibody conjugated to APC (Life Technologies, Grand Island, N.Y.) was used to identify HbF expressing erythroid cells. The nuclear dye, syto16, (Life Technologies) was used to separate the reticulocyte and RBC populations. Protein and cellular data were collected on the Bio-Rad D10 analyzer (Bio-Rad, Benicia, Calif.) and the FACs Canto I (BD BioSciences, San Jose, Calif.) respectively. Flow cytometry data was analyzed with Flowjo v7 software (Treestar, Inc Ashland. Oreg.). Group mean and standard deviation were determined for the control and treatment groups. Data were graphed and analyzed using 1-Way ANOVA with Tukey post test (Graphpad Prism v5 [La Jolla, Calif.]).

SCD transgenic mice = assay: Fetal hemoglobin in SCD transgenic mouse model, F-reticulocytes and F-RBCs by flow cytometry; assay type: in vivo; settings: oral, 10 or 50 mg/kg BID daily, measured by flow cytometry
Excerpt: FIG. 2B depicts the effect of Compound A on fetal hemoglobin in the transgenic mouse model.

[2] = read-out: DNMT3B Breaklight IC50
[3] = repeated experimental runs, read-out: average IC50, DNMT3B breaklight assay
[4] = read-out: DNMT3A Breaklight IC50
[5] = repeated experimental runs, read-out: average IC50, DNMT3A breaklight assay

Sequence of human full length DNMT1 (P26358 whole entry): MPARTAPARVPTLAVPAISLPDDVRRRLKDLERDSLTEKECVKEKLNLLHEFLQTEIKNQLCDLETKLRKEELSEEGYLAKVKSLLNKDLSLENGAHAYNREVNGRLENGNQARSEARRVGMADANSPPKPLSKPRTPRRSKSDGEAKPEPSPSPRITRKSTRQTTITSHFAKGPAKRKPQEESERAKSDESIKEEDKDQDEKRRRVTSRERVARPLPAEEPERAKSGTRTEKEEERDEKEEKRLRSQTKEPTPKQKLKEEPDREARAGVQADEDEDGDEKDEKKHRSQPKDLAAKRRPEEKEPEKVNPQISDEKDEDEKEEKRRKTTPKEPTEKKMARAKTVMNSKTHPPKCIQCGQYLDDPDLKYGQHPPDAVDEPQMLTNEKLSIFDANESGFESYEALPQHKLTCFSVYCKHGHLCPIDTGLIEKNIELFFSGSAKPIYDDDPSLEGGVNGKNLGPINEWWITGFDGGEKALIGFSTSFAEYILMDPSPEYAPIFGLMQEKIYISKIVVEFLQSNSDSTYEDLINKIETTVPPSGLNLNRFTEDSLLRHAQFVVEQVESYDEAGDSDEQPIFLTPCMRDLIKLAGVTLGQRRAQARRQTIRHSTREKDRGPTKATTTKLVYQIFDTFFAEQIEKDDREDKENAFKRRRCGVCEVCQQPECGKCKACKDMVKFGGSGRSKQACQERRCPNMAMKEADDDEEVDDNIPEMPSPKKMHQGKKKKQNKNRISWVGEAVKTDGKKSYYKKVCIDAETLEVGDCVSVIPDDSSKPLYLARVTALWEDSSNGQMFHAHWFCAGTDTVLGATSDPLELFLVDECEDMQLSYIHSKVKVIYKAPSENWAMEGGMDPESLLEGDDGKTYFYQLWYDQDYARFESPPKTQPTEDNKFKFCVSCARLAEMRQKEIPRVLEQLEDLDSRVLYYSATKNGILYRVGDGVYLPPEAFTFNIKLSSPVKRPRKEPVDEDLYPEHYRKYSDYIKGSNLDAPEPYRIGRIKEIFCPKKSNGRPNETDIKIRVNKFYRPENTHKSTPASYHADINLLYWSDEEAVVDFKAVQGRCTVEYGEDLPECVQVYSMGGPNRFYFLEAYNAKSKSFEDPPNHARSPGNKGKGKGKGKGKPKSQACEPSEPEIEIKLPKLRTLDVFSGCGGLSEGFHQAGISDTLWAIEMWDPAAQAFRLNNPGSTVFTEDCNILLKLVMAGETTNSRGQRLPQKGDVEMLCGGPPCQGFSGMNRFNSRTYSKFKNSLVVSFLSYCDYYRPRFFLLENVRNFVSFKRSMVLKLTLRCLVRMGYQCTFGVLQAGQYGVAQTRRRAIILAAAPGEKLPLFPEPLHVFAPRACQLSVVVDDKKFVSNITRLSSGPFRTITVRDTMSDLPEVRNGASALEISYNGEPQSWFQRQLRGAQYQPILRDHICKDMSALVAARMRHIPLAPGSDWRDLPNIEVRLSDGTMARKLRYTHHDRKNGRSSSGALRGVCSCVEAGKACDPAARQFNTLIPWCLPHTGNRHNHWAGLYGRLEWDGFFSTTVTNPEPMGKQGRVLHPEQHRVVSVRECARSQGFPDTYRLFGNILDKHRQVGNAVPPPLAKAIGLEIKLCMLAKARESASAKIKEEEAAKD

| SMILES | IC50 (human full length DNMT1) [µM] | IC50 (DNMT3B; [2]) [µM] | IC50 (DNMT3B; [3]) [µM] | IC50 (human DNMT3a/3l; [4]) [µM] | IC50 (human DNMT3a/3l; [5]) [µM] | EC50 (MV-4-11 AML cells) [µM] | also measured |
| --- | --- | --- | --- | --- | --- | --- | --- |
| N#Cc1c(SC(C(N)=O)c2ccncc2)nc(N2CCOCC2)c(C#N)c1C1CC1 (centres unmarked) [Example 9, 2-((3,5-dicyano-4-cyclopropyl-6-morpholinopyridin-2-yl)thio)-2-(pyridin-4-yl)acetamide] | > 0.75 | > 500 | > 500 | > 500 | > 500 | – | – |
| CCc1c(C#N)c(SC(C(N)=O)c2ccccc2)nc(N2CCCN(C)CC2)c1C#N (centres unmarked) [Example 56, 2-((3,5-Dicyano-4-ethyl-6-(4-methyl-1,4-diazepan-1-yl)pyridin-2-yl)thio)-2-phenylacetamide] | ≤ 0.5 | > 500 | > 500 | > 500 | > 500 | 1 to 31.6 | – |
| CN1CCN(CC2CCN(c3nc(SC(C(N)=O)c4ccccc4)c(C#N)c(C4CC4)c3C#N)CC2)CC1 (centres unmarked) [Example 125, 2-((3,5-Dicyano-4-cyclopropyl-6-(4-((4-methylpiperazin-1-yl)methyl)piperidin-1-yl)pyridin-2-yl)thio-2-phenylacetamide trifluoroacetate] | – | 75 | – | 322 | – | 0.316 to 1 | – |
| CCc1c(C#N)c(N[C@@H](C(N)=O)c2ccccc2)nc(N2CCCNCC2)c1C#N [Example 41, (R)-2-((3,5-dicyano-6-(1,4-diazepan-1-yl)-4-ethylpyridin-2-yl)amino)-2-phenylacetamide] | > 0.75 | > 500 | > 500 | > 500 | > 500 | – | – |
| CCc1c(C#N)c(SC(C(N)=O)c2ccccc2)nc(N2CCOCC2)c1C#N (centres unmarked) [Example 57, 2-((3,5-Dicyano-4-ethyl-6-morpholinopyridin-2-yl)thio)-2-phenylacetamide] | – | > 500 | – | > 500 | – | 0.316 to 1 | – |
| CCc1c(C#N)c(SC(C(N)=O)c2ccccc2)nc(N2CCNC(=O)CC2)c1C#N (centres unmarked) [Example 8, 2-{[3,5-dicyano-4-ethyl-6-(5-oxo-1,4-diazepan-1-yl)pyridin-2-yl]sulfanyl}-2-phenylacetamide] | > 0.75 | > 500 | > 500 | > 500 | > 500 | 1 to 31.6 | – |
| CCc1c(C#N)c(SC(C(N)=O)c2ccccc2)nc(N2CCC23CCNCC3)c1C#N (centres unmarked) [Example 38, 2-((3,5-Dicyano-4-ethyl-6-(1,7-diazaspiro[3.5]nonan-1-yl)pyridin-2-yl)thio)-2-phenylacetamide trifluoroacetate] | > 0.75 | – | – | – | – | 1 to 31.6 | – |
| CC(Sc1nc(N2CCCNCC2)c(C#N)c(C2CC2)c1C#N)C(N)=O (centres unmarked) [Example 46, 2-((3,5-dicyano-4-cyclopropyl-6-(1,4-diazepan-1-yl)pyridin-2-yl)thio)propanamide] | – | > 500 | – | > 500 | – | 1 to 31.6 | – |
| CN1CCN(C2CCN(c3nc(SC(C(N)=O)c4ccccc4)c(C#N)c(C4CC4)c3C#N)CC2)CC1 (centres unmarked) [Example 40, 2-((3,5-Dicyano-4-cyclopropyl-6-(4-(4-methylpiperazin-1-yl)piperidin-1-yl)pyridin-2-yl)thio)-2-phenylacetamide] | ≤ 0.5 | – | – | – | – | 0.316 to 1 | – |
| CCc1c(C#N)c(SC(C(N)=O)c2ccccc2)nc(N(C)C)c1C#N (centres unmarked) [Compound A, 2-{[3,5-dicyano-6-(dimethylamino)-4-ethylpyridin-2-yl]sulfanyl}-2-phenylacetamide] | – | – | – | – | – | – | increase in % F RBCs ([1]; 10 mg/kg BID oral, p<0.001): 6 fold; increase in % F reticulocytes ([1]; 10 mg/kg BID oral, p<0.001): 4 fold; increase in % HbF protein ([1]; 10 mg/kg BID oral, p<0.05): 5.4 fold; increase in % F RBCs ([1]; 50 mg/kg BID oral, p<0.001): 8 fold; increase in % F reticulocytes ([1]; 50 mg/kg BID oral, p<0.001): 9 fold; increase in % HbF protein ([1]; 50 mg/kg BID oral, p<0.001): 10.3 fold; % F-RBCs (SCD transgenic mice): dose dependent increases; % F-reticulocytes (SCD transgenic mice): dose dependent increases |
| CCc1c(C#N)c(SC(C(N)=O)c2ccccc2)nc(N2CCNCC2)c1C#N (centres unmarked) [Example 55, 2-((3,5-Dicyano-4-ethyl-6-(piperazin-1-yl)pyridin-2-yl)thio)-2-phenylacetamide] | – | 272 | – | > 500 | – | 1 to 31.6 | – |
| CCc1c(C#N)c(SC(C(N)=O)c2ccccc2)nc(N2CCC(O)CC2)c1C#N (centres unmarked) [Example 48, 2-((3,5-Dicyano-4-ethyl-6-(4-hydroxypiperidin-1-yl)pyridin-2-yl)thio)-2-phenylacetamide] | 0.89 | > 500 | – | > 500 | – | – | – |
| CCc1c(C#N)c(SC(C(N)=O)c2ccccc2)nc(N2CCN(CC)CC2)c1C#N (centres unmarked) [Example 35, 2-((3,5-dicyano-4-ethyl-6-(4-ethylpiperazin-1-yl)pyridin-2-yl)thio)-2-phenylacetamide] | > 0.75 | > 500 | > 500 | > 500 | > 500 | – | – |
| N#Cc1c(SC(C(N)=O)c2ccccc2)nc(N2CCOC(CO)C2)c(C#N)c1C1CC1 (centres unmarked) [Example 63, 2-((3,5-Dicyano-4-cyclopropyl-6-(2-(hydroxymethyl)morpholino)pyridin-2-yl)thio)-2-phenylacetamide] | > 0.75 | – | – | – | – | 1 to 31.6 | – |
